# Measurements taken from publication PMC9774241, “Associating Biological Activity and Predicted Structure of Antimicrobial Peptides from Amphibians and Insects” (Antibiotics, 2022).
# “Also recorded” adds a separate entry of the source. Residues, ends and D or L forms follow the SMILES beside them. No end group written: not given here.
# What was measured:
# [1] = test system: HEK293 cells; assay: alamarBlue cell viability assay (cytotoxicity); type: cell-based, human
# Procedure: The human embryonic kidney cell line HEK293 and the corresponding growth media and supplements were purchased from the ATCC. The cells were maintained in Eagle’s Minimum Essential Medium (EMEM) supplemented with 10% fetal bovine serum (FBS) and 1% Penicillin-Streptomycin solution and grown in a 5% CO2 incubator at 37 °C. Approximately 1 × 10^4 cells were distributed to each well of a 96-well flat-bottom cell culture plate (Corning #3595, Corning, NY, USA). Cells were incubated overnight to allow them to adhere. Lyophilized 80 µg peptide aliquots were resuspended to 1.28 mg/mL with UltraPure deionized water and serially diluted in polypropylene 96-well microtiter plates from 128-0.5 µg/mL. TX-100 was diluted to 2% in UltraPure deionized water and added as a positive control. Complete growth medium was added to the peptides and TX-100 containing wells. Spent growth medium of wells with adhered cells was replaced with the contents of wells containing serially diluted peptides or TX-100. Cells were incubated for four hours at 37 °C in 5% CO2 incubator. Growth medium containing peptides or TX-100 was replaced with fresh growth medium containing 10% (v/v) alamarBlue (Bio-Rad Laboratories, Hercules, CA, USA) and incubated for 20 h. Fluorescence was measured at excitation of 540 nm and emission of 590 nm in a Cytation 5 plate reader (Agilent BioTek, Winooski, VT, USA) and results recorded and analyzed with Gen5 software (Agilent BioTek, Winooski, VT, USA). The average fluorescence reads of TX-100 and growth media only wells were used to calculate 0% and 100% cell viability, respectively. The percentage of viable cells at each peptide concentration was determined by: cell viability%=1−fluorescence100% viable− fluorescencepeptide/fluorescence100% viable−fluorescence0% viable×100%
# [2] = test system: Salmonella enterica serovar Enteritidis (human clinical isolate); type: cell-based; conditions: broth microdilution in MHB, peptide 128 down to 0.5 µg/mL, 20–24 h at 37 °C, no visible growth; range of three independent experiments
# In short: (§1)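 CLSI broth microdilution in MHB, adapted for cationic peptides, in polypropylene plates; peptides 2-fold from 128 to 0.5 µg/mL, inoculum 2–8 × 10^5 cfu/mL. Incubated 20–24 h at 37 °C; MIC = lowest concentration with no visible growth.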
# [3] = test system: Escherichia coli ATCC 25922; type: cell-based; conditions: broth microdilution in MHB, peptide 128 down to 0.5 µg/mL, 20–24 h at 37 °C, no visible growth; range of three independent experiments
# In short: as §1
# [4] = test system: Staphylococcus aureus ATCC 29213; type: cell-based; conditions: broth microdilution in MHB, peptide 128 down to 0.5 µg/mL, 20–24 h at 37 °C, no visible growth; range of three independent experiments
# In short: as §1
# [5] = test system: porcine red blood cells; assay: Hemolysis assay (HC50); type: cell-based, pig; conditions: for hemolytic activity (in words): porcine RBCs, highest concentration tested 128 µg/mL
# Procedure: Peptides were evaluated for toxicity using three independent hemolysis experiments. Whole blood from healthy donor pigs, supplemented with Na Citrate, was purchased from Lampire Biological Laboratories (Pipersville, PA, USA). Red blood cells (RBCs) were washed and isolated by three centrifugation cycles using Roswell Park Memorial Institute medium (RPMI; Thermo-Fisher Scientific) to create a 1% (v/v) RBC solution. […] Following a minimum 30 min incubation at 37 °C, plates were centrifuged and ½ volume from each supernatant was transferred to a new 96-well plate. The absorbance of these wells was measured at 415 nm. To quantify hemolytic activity and determine the AMP concentration that lyses 50% of the RBCs (HC50), absorbance reading from wells containing RBCs treated with 11 μL of a 2% TritonX-100 detergent solution (TX-100) or RPMI (AMP solvent-only) were used to define 100% and 0% hemolysis, respectively. All centrifugation steps were performed at 500× g for five minutes in an Allegra-6R centrifuge (Beckman Coulter, Brea, CA, USA).
Molecule,"HEK293 cell viability ([1]; at 128 µg/mL, mean of three independent experiments) [%]",cytotoxicity to HEK293 cells (in words) ([1]; at concentrations lower than 128 µg/mL),"MIC, Salmonella Enteritidis [2] [mg/L]","MIC, E. coli ATCC 25922 [3] [mg/L]","MIC, S. aureus ATCC 29213 [4] [mg/L]",hemolytic activity (in words) [5],"toxicity to HEK293 cells (in words) ([1]; any of the concentrations tested, up to 128 µg/mL)","HC50 (hemolytic 50 concentration) ([5]; 1% porcine RBCs in RPMI, peptide 128 down to 1 µg/mL, minimum 30 min at 37 °C, absorbance 415 nm, three independent experiments) [µg/mL]"
KIKIPWGKVKDFLVGGMKAVGKK [TeBi1],40,low or no cytotoxicity at lower concentrations,4 to 8,1 to 2,4 to 8,not hemolytic at the concentrations tested,,
SWLSKSVKKLVNKKNYTRLEKLAKKKLFNE [TeRu4],,,2 to 4,1,,not hemolytic at the concentrations tested; also recorded: not toxic,not toxic,
RPRPQQVPPRPPHPRLRR [PaVa1],,,,,,not toxic,,
FILHAKKTRSAK [VeSi1],,,> 128,> 128,> 128,,,
CC(C)C[C@H](NC(=O)CN)C(=O)N[C@@H](CC(C)C)C(=O)NCC(=O)N[C@@H](CCCCN)C(=O)N[C@H](C(=O)N[C@@H](CC(C)C)C(=O)NCC(=O)N[C@H](C(=O)NCC(=O)N[C@@H](CCCCN)C(=O)N[C@@H](CCCCN)C(=O)N[C@H](C(=O)N[C@@H](CC(C)C)C(=O)N[C@@H](CS)C(=O)NCC(=O)N[C@H](C(=O)N[C@@H](CO)C(=O)NCC(=O)N[C@@H](CCCNC(=N)N)C(=O)N[C@@H](CS)C(=O)O)C(C)C)C(C)C)C(C)C)C(C)C [RaOm4] (H-GLLGKVLGVGKKVLCGVSGRC-OH; N-terminus and C-terminus assumed),,,32,4 to 8,64 to 128,,,
GILSGLLGAGKKIVC [OdMa4],,,32,8 to 16,> 128,,,
RKIIAVSVHKLCRVKR [BoUs1],,,64,64 to 128,> 128,,,
VKCRVRR [ApMe1],,,> 128,> 128,> 128,,,
CC[C@H](C)[C@H](NC(=O)CNC(=O)[C@H](CCCNC(=N)N)NC(=O)[C@H](CC(C)C)NC(=O)[C@H](CC(C)C)NC(=O)CN)C(=O)N[C@@H](CC(C)C)C(=O)NCC(=O)N[C@@H](C)C(=O)NCC(=O)N[C@@H](CCCCN)C(=O)N[C@@H](CCCCN)C(=O)N[C@H](C(=O)N[C@H](C(=O)N[C@@H](CS)C(=O)NCC(=O)N[C@@H](CC(C)C)C(=O)N[C@@H](CO)C(=O)NCC(=O)N[C@@H](CC(C)C)C(=O)N[C@@H](CS)C(=O)O)C(C)C)[C@@H](C)CC [OdMa2] (H-GLLRGILGAGKKIVCGLSGLC-OH),,,8 to 16,4,4 to 8,,,128
CC[C@H](C)[C@H](NC(=O)[C@H](CCCCN)NC(=O)CNC(=O)[C@H](CC(C)C)NC(=O)[C@H](CC(C)C)NC(=O)CN)C(=O)N[C@@H](CC(C)C)C(=O)NCC(=O)N[C@H](C(=O)NCC(=O)N[C@@H](CCCCN)C(=O)N[C@@H](CCCCN)C(=O)N[C@H](C(=O)N[C@@H](CC(C)C)C(=O)N[C@@H](CS)C(=O)NCC(=O)N[C@H](C(=O)N[C@@H](CO)C(=O)NCC(=O)N[C@@H](CC(C)C)C(=O)N[C@@H](CS)C(=O)O)C(C)C)C(C)C)C(C)C [PeNi9] (H-GLLGKILGVGKKVLCGVSGLC-OH),,,8 to 16,2 to 4,4 to 8,,,
GLISGILGAGKKVLC [OdMa9],,,128,64 to 128,> 128,,,
